In ChEMBL document CHEMBL1201862, “PubChem BioAssay data set” (2004):
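48-hour exposure; five concentrations; linearly interpolated endpoints. Here, GI50 denotes the concentration required for 50% inhibition of growth.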 Calls of active or inactive are those of the source. No stated cut-off is given here; in the data, active = GI50 up to about 1.1 µM and inactive = higher.

Key:
Assay in all cases: inhibition of tumour cell growth, NCI panel, 48 h
OVCAR-8 = tested on: OVCAR-8
NCI-H522 = tested on: NCI-H522
OVCAR-5 = tested on: OVCAR-5
HL-60 = tested on: HL-60
PC-3 = tested on: PC-3
CCRF-CEM = tested on: CCRF-CEM
LOX IMVI = tested on: LOX IMVI
NCI/ADR-RES = tested on: NCI/ADR-RES
EKVX = tested on: EKVX
IGROV-1 = tested on: IGROV-1
U-251 = tested on: U-251
HCT-116 = tested on: HCT-116
SW-620 = tested on: SW-620
SF-295 = tested on: SF-295
MDA-MB-435 = tested on: MDA-MB-435
NCI-H226 = tested on: NCI-H226
DU-145 = tested on: DU-145
T47D = tested on: T47D
SNB-75 = tested on: SNB-75

Structure (SMILES)	GI50 (OVCAR-8)	GI50 (NCI-H522)	GI50 (OVCAR-5)	GI50 (HL-60)	GI50 (PC-3)	GI50 (CCRF-CEM)	GI50 (LOX IMVI)	GI50 (NCI/ADR-RES)	GI50 (EKVX)	GI50 (IGROV-1)	GI50 (U-251)	GI50 (HCT-116)	GI50 (SW-620)	GI50 (SF-295)	GI50 (MDA-MB-435)	GI50 (NCI-H226)	GI50 (DU-145)	GI50 (T47D)	GI50 (SNB-75)
CCCCCCCCCCCCCC(=O)N(CCCCCCCCC)CC(O)C(O)C(OC1OC(CO)C(O)C(O)C1O)C(O)CO (stereo unspecified)	20.8 µM (inactive)	23 µM (inactive)	32.9 µM (inactive)	23.3 µM (inactive)	21.8 µM (inactive)	26.2 µM (inactive)	19.5 µM (inactive)	18.8 µM (inactive)	18 µM (inactive)	20.2 µM (inactive)	22.5 µM (inactive)	17.4 µM (inactive)	19.9 µM (inactive)	20.7 µM (inactive)	19.8 µM (inactive)	18.7 µM (inactive)	16.5 µM (inactive)	19.1 µM (inactive)	19.5 µM (inactive)
COc1ccc(/N=C(/SS/C(=N/c2ccc(OC)cc2)c2ccc([N+](=O)[O-])o2)c2ccc([N+](=O)[O-])o2)cc1	1.37 µM (inactive)	0.286 µM (active)	2.2 µM (inactive)	1.69 µM (inactive)	0.838 µM (active)	2.08 µM (inactive)	1.78 µM (inactive)	1.39 µM (inactive)	1.52 µM (inactive)	1.75 µM (inactive)	0.35 µM (active)	1.18 µM (inactive)	0.35 µM (active)	2.16 µM (inactive)	1.59 µM (inactive)	10.1 µM (inactive)	1.41 µM (inactive)	1.61 µM (inactive)	1.27 µM (inactive)
CC1(C)S[C@H](CN)N[C@H]1C(=O)OC(c1ccccc1)c1ccccc1	57.9 µM (inactive)	31.9 µM (inactive)	60.8 µM (inactive)	16.7 µM (inactive)	25.5 µM (inactive)	–	17.4 µM (inactive)	> 100 µM (inactive)	47.2 µM (inactive)	37.4 µM (inactive)	33 µM (inactive)	33.8 µM (inactive)	43.6 µM (inactive)	41.7 µM (inactive)	30.3 µM (inactive)	> 100 µM (inactive)	> 100 µM (inactive)	27.9 µM (inactive)	84.3 µM (inactive)
CCCC(=O)Nc1ccc2c(c1)CN1C(=O)c3ccccc3C1=N2	> 100 µM (inactive)	> 100 µM (inactive)	> 100 µM (inactive)	> 100 µM (inactive)	> 100 µM (inactive)	–	> 100 µM (inactive)	> 100 µM (inactive)	–	> 100 µM (inactive)	> 100 µM (inactive)	> 100 µM (inactive)	> 100 µM (inactive)	69.5 µM (inactive)	> 100 µM (inactive)	> 100 µM (inactive)	> 100 µM (inactive)	> 100 µM (inactive)	49.5 µM (inactive)
C/C(=C\c1ccccc1)C(=O)NCc1ccc(C(=O)NCCC(C)C)cc1	37.2 µM (inactive)	> 100 µM (inactive)	> 100 µM (inactive)	–	> 100 µM (inactive)	> 100 µM (inactive)	> 100 µM (inactive)	45.5 µM (inactive)	76.4 µM (inactive)	68.7 µM (inactive)	86.7 µM (inactive)	65 µM (inactive)	> 100 µM (inactive)	37 µM (inactive)	> 100 µM (inactive)	40.5 µM (inactive)	> 100 µM (inactive)	> 100 µM (inactive)	21.9 µM (inactive)
CCOC(=O)C(C)c1nc2cc(N3CCN(C)CC3)c(F)cc2[nH]c1=O (stereo unspecified)	> 100 µM (inactive)	40.5 µM (inactive)	> 100 µM (inactive)	> 100 µM (inactive)	> 100 µM (inactive)	> 100 µM (inactive)	–	> 100 µM (inactive)	> 100 µM (inactive)	> 100 µM (inactive)	> 100 µM (inactive)	> 100 µM (inactive)	> 100 µM (inactive)	> 100 µM (inactive)	> 100 µM (inactive)	> 100 µM (inactive)	> 100 µM (inactive)	> 100 µM (inactive)	> 100 µM (inactive)
CCOC(=O)Cn1nc2ccc(Nc3c(C)[n+]([O-])c4cc(F)c(OCC)cc4[n+]3[O-])cc2n1	> 100 µM (inactive)	> 100 µM (inactive)	> 100 µM (inactive)	> 100 µM (inactive)	> 100 µM (inactive)	> 100 µM (inactive)	> 100 µM (inactive)	> 100 µM (inactive)	> 100 µM (inactive)	> 100 µM (inactive)	37.5 µM (inactive)	> 100 µM (inactive)	> 100 µM (inactive)	44.2 µM (inactive)	> 100 µM (inactive)	> 100 µM (inactive)	> 100 µM (inactive)	> 100 µM (inactive)	–
CC(=C/C=C/C=C(C)\C=C\C=C(\C)C(=O)O)/C=C/C=C(/C)C(=O)O	> 100 µM (inactive)	> 100 µM (inactive)	> 100 µM (inactive)	25.5 µM (inactive)	> 100 µM (inactive)	> 100 µM (inactive)	> 100 µM (inactive)	> 100 µM (inactive)	–	> 100 µM (inactive)	> 100 µM (inactive)	> 100 µM (inactive)	> 100 µM (inactive)	> 100 µM (inactive)	> 100 µM (inactive)	> 100 µM (inactive)	> 100 µM (inactive)	> 100 µM (inactive)	> 100 µM (inactive)
CN1CCC/C1=C1/C(=O)N(c2ccccc2)N=C1c1ccc[nH]1	> 100 µM (inactive)	> 100 µM (inactive)	> 100 µM (inactive)	> 100 µM (inactive)	> 100 µM (inactive)	> 100 µM (inactive)	> 100 µM (inactive)	> 100 µM (inactive)	> 100 µM (inactive)	> 100 µM (inactive)	> 100 µM (inactive)	> 100 µM (inactive)	> 100 µM (inactive)	> 100 µM (inactive)	> 100 µM (inactive)	> 100 µM (inactive)	> 100 µM (inactive)	> 100 µM (inactive)	> 100 µM (inactive)
CCCCCCCC(CC(=O)O)OC(=O)CC(CCCCCCC)OC1OC(C)C(O)C(O)C1OC1OC(C)C(O)C(O)C1O (stereo unspecified)	> 100 µM (inactive)	> 100 µM (inactive)	> 100 µM (inactive)	–	> 100 µM (inactive)	79.4 µM (inactive)	> 100 µM (inactive)	> 100 µM (inactive)	> 100 µM (inactive)	62.2 µM (inactive)	> 100 µM (inactive)	> 100 µM (inactive)	> 100 µM (inactive)	> 100 µM (inactive)	> 100 µM (inactive)	> 100 µM (inactive)	> 100 µM (inactive)	> 100 µM (inactive)	> 100 µM (inactive)
COc1cc(-c2c[nH]c3ccccc23)nc(-c2c[nH]c3ccccc23)n1	4.97 µM (inactive)	–	8.13 µM (inactive)	3.43 µM (inactive)	2.84 µM (inactive)	1.13 µM (inactive)	4.84 µM (inactive)	8.87 µM (inactive)	5.56 µM (inactive)	1.85 µM (inactive)	4.19 µM (inactive)	3.43 µM (inactive)	7.62 µM (inactive)	3.13 µM (inactive)	5.77 µM (inactive)	–	11.3 µM (inactive)	5.19 µM (inactive)	6.1 µM (inactive)
O=C(CCc1ccccc1)ON1C(=S)NC(c2ccccc2)(c2ccccc2)C1=S	31.2 µM (inactive)	–	61.4 µM (inactive)	21.6 µM (inactive)	23.4 µM (inactive)	21.9 µM (inactive)	21.1 µM (inactive)	28.5 µM (inactive)	25.4 µM (inactive)	25.9 µM (inactive)	39.4 µM (inactive)	23.7 µM (inactive)	42.4 µM (inactive)	42 µM (inactive)	36.9 µM (inactive)	22 µM (inactive)	68.1 µM (inactive)	41.6 µM (inactive)	33 µM (inactive)
[N-]=[N+]=Nc1cc(=O)n2c3c(cccc13)CCC2	> 100 µM (inactive)	> 100 µM (inactive)	–	> 100 µM (inactive)	> 100 µM (inactive)	> 100 µM (inactive)	> 100 µM (inactive)	> 100 µM (inactive)	43.7 µM (inactive)	> 100 µM (inactive)	> 100 µM (inactive)	> 100 µM (inactive)	> 100 µM (inactive)	> 100 µM (inactive)	> 100 µM (inactive)	> 100 µM (inactive)	> 100 µM (inactive)	> 100 µM (inactive)	> 100 µM (inactive)
Cc1csc2c1-n1cccc1C2=O	> 100 µM (inactive)	> 100 µM (inactive)	> 100 µM (inactive)	–	> 100 µM (inactive)	> 100 µM (inactive)	> 100 µM (inactive)	> 100 µM (inactive)	64.3 µM (inactive)	> 100 µM (inactive)	> 100 µM (inactive)	> 100 µM (inactive)	> 100 µM (inactive)	> 100 µM (inactive)	67.3 µM (inactive)	> 100 µM (inactive)	> 100 µM (inactive)	> 100 µM (inactive)	> 100 µM (inactive)
Nc1nc(Cl)cc(Nc2ccc3c(c2)CCC3)n1	80.9 µM (inactive)	45.4 µM (inactive)	> 100 µM (inactive)	37.2 µM (inactive)	61.2 µM (inactive)	44.3 µM (inactive)	56.5 µM (inactive)	28.6 µM (inactive)	32.1 µM (inactive)	41.5 µM (inactive)	> 100 µM (inactive)	43.8 µM (inactive)	85.1 µM (inactive)	> 100 µM (inactive)	> 100 µM (inactive)	> 100 µM (inactive)	> 100 µM (inactive)	> 100 µM (inactive)	–
